Test results as given in ChEMBL document CHEMBL4433248, “SAR studies in the sulfonyl carboxamide class of HBV capsid assembly modulators” (Bioorg Med Chem Lett, 2019).
Blank lines part the entries; values can stand above or below the molecule they belong to.

Columns and labels:
[1] = Cytotoxicity against human HepG2.2.15 cells assessed as reduction in cell viability incubated for 3 days followed by replacement of fresh medium containing compound and measured after 3 days by cell titer glo-based luminescence assay; design: species or system HepG2 2.2.15
[2] = Oral bioavailability in CD1 mouse at 10 mg/kg; assay type: ADME, organism-based; settings: in vivo
[3] = Oral bioavailability in Mongrel dog at 3 mg/kg; assay type: ADME, organism-based, Canis lupus familiaris; settings: in vivo
[4] = Half life in CD1 mouse at 10 mg/kg, po or 2 mg/kg, iv; assay type: ADME, organism-based; settings: in vivo
[5] = Half life in Sprague-Dawley rat at 10 mg/kg, po or 2 mg/kg, iv; assay type: ADME, organism-based; settings: in vivo
[6] = Half life in Mongrel dog at 3 mg/kg, po or 1 mg/kg, iv; assay type: ADME, organism-based, Canis lupus familiaris; settings: in vivo
[7] = Clearance in CD1 mouse at 10 mg/kg, po or 2 mg/kg, iv; assay type: ADME, organism-based; settings: in vivo
[8] = Clearance in Sprague-Dawley rat at 10 mg/kg, po or 2 mg/kg, iv; assay type: ADME, organism-based; settings: in vivo
[9] = Clearance in Mongrel dog at 3 mg/kg, po or 1 mg/kg, iv; assay type: ADME, organism-based, Canis lupus familiaris; settings: in vivo
[10] = Volume of distribution at steady state in CD1 mouse at 10 mg/kg, po or 2 mg/kg, iv; assay type: ADME, organism-based; settings: in vivo, read-out: Vdss
[11] = Volume of distribution at steady state in Sprague-Dawley rat at 10 mg/kg, po or 2 mg/kg, iv; assay type: ADME, organism-based; settings: in vivo, read-out: Vdss
[12] = Volume of distribution at steady state in Mongrel dog at 3 mg/kg, po or 1 mg/kg, iv; assay type: ADME, organism-based, Canis lupus familiaris; settings: in vivo, read-out: Vdss
[13] = tested on: Hepatitis B virus; test: Ratio of EC50 for antiviral activity against Hepatitis B virus infected in human HepG2.2.15 cells in presence of 40% normal human serum to EC50 for antiviral activity against Hepatitis B virus infected in human HepG2.2.15 cells in absence of 40% normal human serum; assay type: functional
[14] = Lipophilicity, log P of the compound; assay type: physicochemical; settings: octanol/water
[15] = Ratio of drug concentration in liver to plasma of CD1 mouse; assay type: ADME
[16] = Half life in CD1 mouse hepatocytes; assay type: ADME, cell-based, Hepatocyte
[17] = Half life in Sprague-Dawley rat hepatocytes; assay type: ADME, cell-based, Hepatocyte
[18] = Half life in Mongrel dog hepatocytes; assay type: ADME, cell-based, Canis lupus familiaris, Hepatocyte
[19] = Stability in human hepatocytes; assay type: ADME, cell-based, Hepatocyte
[20] = Half life in human hepatocytes; assay type: ADME, cell-based, Hepatocyte
[21] = AUC in CD1 mouse plasma at 5 mg/kg; assay type: ADME, organism-based; settings: in vivo
[22] = AUC in CD1 mouse liver at 5 mg/kg; assay type: ADME, organism-based; settings: in vivo
[23] = Half life in human at 200 mg; assay type: ADME
[24] = tested on: Hepatitis B virus; test: Antiviral activity against Hepatitis B virus infected in naive HBeAg positive patients assessed as log10 reduction in HBV DNA at 600 mg bid; assay type: functional
[25] = Solubility of the compound in DMSO; assay type: physicochemical

bioavailability [2]: 78%
bioavailability [3]: 53%
half-life [4]: 2.6 h
half-life [5]: 0.6 h
half-life [6]: 4.6 h
clearance [7]: 28 mL/min/kg
clearance [8]: 88 mL/min/kg
clearance [9]: 5.4 mL/min/kg
Vd [10]: 4.1 L/kg
Vd [11]: 3.3 L/kg
Vd [12]: 1.3 L/kg
logP ([14]; read-out: logP): 2.6
Kp [15]: 15
half-life [16]: 0.8 h
half-life [17]: 0.467 h
half-life [18]: 4.63 h
Stability [19]: Stable
SMILES: O=C(Nc1ccc(F)c(Cl)c1)c1ccc(F)c(S(=O)(=O)N2CCOC[C@H](O)C2)c1
CC50 at 72 h [1]: 19 µM
Ratio EC50 [13]: 6

half-life [20]: 8.58 h
bioavailability [2]: 12%
bioavailability [3]: 22%
half-life [4]: 3.2 h
half-life [6]: 4.6 h
clearance [7]: 34 mL/min/kg
clearance [9]: 6.4 mL/min/kg
Vd [10]: 4.1 L/kg
Vd [12]: 1.3 L/kg
AUC [21]: 0.73 µM·h
AUC [22]: 55.4 µM·h
logP ([14]; read-out: logP): 2.9
Kp [15]: 76
half-life [16]: 3.72 h
half-life [17]: 0.467 h
half-life [18]: 3.23 h
SMILES: O=C(Nc1ccc(F)c(Cl)c1)c1ccc(F)c(S(=O)(=O)N2C[C@H](O)CC[C@H](O)C2)c1

SMILES: O=C(Nc1ccc(F)c(Cl)c1)c1ccc(F)c(S(=O)(=O)N2CCCC(O)CC2)c1 (stereo not drawn)
CC50 at 72 h [1]: 29 µM

SMILES: O=C(Nc1ccc(F)c(Cl)c1)c1ccc(F)c(S(=O)(=O)N2CCOCC(F)C2)c1 (stereo not drawn)
CC50 at 72 h [1]: 15 µM

SMILES: CC1(O)CCCCN(S(=O)(=O)c2cc(C(=O)Nc3ccc(F)c(Cl)c3)ccc2F)C1 (stereo not drawn)
CC50 at 72 h [1]: 10 µM

half-life [23]: 15 to 19 h
logP [14]: 3.2
Kp [15]: 6
SMILES: O=C(Nc1cc(F)c(F)c(F)c1)c1ccc(F)c(S(=O)(=O)N2CCC(O)CC2)c1
Activity [24]: 1.7 log10IU/ml

SMILES: O=C(Nc1ccc(F)c(Cl)c1)c1ccc(F)c(S(=O)(=O)N2CCOC[C@@H](O)C2)c1
CC50 at 72 h [1]: 14 µM

SMILES: O=C(Nc1ccc(F)c(Cl)c1)c1ccc(F)c(S(=O)(=O)N2CCCCC(CO)C2)c1 (stereo not drawn)
CC50 at 72 h [1]: 3.1 µM

half-life [20]: 1.28 h
SMILES: CC1(O)COCCN(S(=O)(=O)c2cc(C(=O)Nc3ccc(F)c(Cl)c3)ccc2F)C1 (stereo not drawn)
CC50 at 72 h [1]: 7.1 to 15 µM

solubility [25]: Insoluble
SMILES: CN1CCCN(S(=O)(=O)c2cc(C(=O)Nc3ccc(F)c(Cl)c3)ccc2F)CC1=O
CC50 at 72 h [1]: > 100 µM

SMILES: O=C(Nc1ccc(F)c(Cl)c1)c1ccc(F)c(S(=O)(=O)N2CCCCCCC2O)c1 (stereo not drawn)
CC50 at 72 h [1]: 7 µM

SMILES: CC(O)C1CCCCN(S(=O)(=O)c2cc(C(=O)Nc3ccc(F)c(Cl)c3)ccc2F)C1 (stereo not drawn)
CC50 at 72 h [1]: 2.6 µM

SMILES: O=C(Nc1ccc(F)c(Cl)c1)c1ccc(F)c(S(=O)(=O)N2CCSCC(O)C2)c1 (stereo not drawn)
CC50 at 72 h [1]: 19 µM

half-life [20]: 0.817 h
SMILES: O=C(Nc1ccc(F)c(Cl)c1)c1ccc(F)c(S(=O)(=O)N2CCCCC(O)C2)c1 (stereo not drawn)
CC50 at 72 h [1]: 15 µM

half-life [20]: 0.0833 h
SMILES: O=C(Nc1ccc(F)c(Cl)c1)c1ccc(F)c(S(=O)(=O)N2CCCCC(O)CC2)c1 (stereo not drawn)
CC50 at 72 h [1]: 24 µM

SMILES: CN1CCN(S(=O)(=O)c2cc(C(=O)Nc3ccc(F)c(Cl)c3)ccc2F)CC(O)C1 (stereo not drawn)
CC50 at 72 h [1]: 31 µM

SMILES: COC1COCCN(S(=O)(=O)c2cc(C(=O)Nc3ccc(F)c(Cl)c3)ccc2F)C1 (stereo not drawn)
CC50 at 72 h [1]: 8.7 µM

SMILES: CC1(O)CCCN(S(=O)(=O)c2cc(C(=O)Nc3ccc(F)c(Cl)c3)ccc2F)CC1 (stereo not drawn)
CC50 at 72 h [1]: 11 µM

half-life [20]: 0.267 h
SMILES: O=C(Nc1ccc(F)c(Cl)c1)c1ccc(F)c(S(=O)(=O)N2CCCCCC(O)C2)c1 (stereo not drawn)
CC50 at 72 h [1]: 11 µM

half-life [20]: 4.63 h
SMILES: O=C(Nc1ccc(F)c(Cl)c1)c1ccc(F)c(S(=O)(=O)N2CCOCC(O)C2)c1 (racemic)
CC50 at 72 h [1]: 7.1 to 15 µM

SMILES: O=C(Nc1ccc(F)c(Cl)c1)c1ccc(F)c(S(=O)(=O)N2CCCCC(F)(F)C2)c1
CC50 at 72 h [1]: 11 µM
